{"source": "patent US11046662B2", "about": "“2-aryl-4-hydroxy-1,3-thiazole derivatives useful as TRPM8-inhibitors in treatment of neuralgia, pain, COPD and asthma” (DOMPÉ FARMACEUTICI S.P.A., priority 2014, dated 2021)", "molecular_target": "human TRPM8 (Homo sapiens (Human), UniProt Q7Z2W7)", "sequence (Q7Z2W7 whole entry)": "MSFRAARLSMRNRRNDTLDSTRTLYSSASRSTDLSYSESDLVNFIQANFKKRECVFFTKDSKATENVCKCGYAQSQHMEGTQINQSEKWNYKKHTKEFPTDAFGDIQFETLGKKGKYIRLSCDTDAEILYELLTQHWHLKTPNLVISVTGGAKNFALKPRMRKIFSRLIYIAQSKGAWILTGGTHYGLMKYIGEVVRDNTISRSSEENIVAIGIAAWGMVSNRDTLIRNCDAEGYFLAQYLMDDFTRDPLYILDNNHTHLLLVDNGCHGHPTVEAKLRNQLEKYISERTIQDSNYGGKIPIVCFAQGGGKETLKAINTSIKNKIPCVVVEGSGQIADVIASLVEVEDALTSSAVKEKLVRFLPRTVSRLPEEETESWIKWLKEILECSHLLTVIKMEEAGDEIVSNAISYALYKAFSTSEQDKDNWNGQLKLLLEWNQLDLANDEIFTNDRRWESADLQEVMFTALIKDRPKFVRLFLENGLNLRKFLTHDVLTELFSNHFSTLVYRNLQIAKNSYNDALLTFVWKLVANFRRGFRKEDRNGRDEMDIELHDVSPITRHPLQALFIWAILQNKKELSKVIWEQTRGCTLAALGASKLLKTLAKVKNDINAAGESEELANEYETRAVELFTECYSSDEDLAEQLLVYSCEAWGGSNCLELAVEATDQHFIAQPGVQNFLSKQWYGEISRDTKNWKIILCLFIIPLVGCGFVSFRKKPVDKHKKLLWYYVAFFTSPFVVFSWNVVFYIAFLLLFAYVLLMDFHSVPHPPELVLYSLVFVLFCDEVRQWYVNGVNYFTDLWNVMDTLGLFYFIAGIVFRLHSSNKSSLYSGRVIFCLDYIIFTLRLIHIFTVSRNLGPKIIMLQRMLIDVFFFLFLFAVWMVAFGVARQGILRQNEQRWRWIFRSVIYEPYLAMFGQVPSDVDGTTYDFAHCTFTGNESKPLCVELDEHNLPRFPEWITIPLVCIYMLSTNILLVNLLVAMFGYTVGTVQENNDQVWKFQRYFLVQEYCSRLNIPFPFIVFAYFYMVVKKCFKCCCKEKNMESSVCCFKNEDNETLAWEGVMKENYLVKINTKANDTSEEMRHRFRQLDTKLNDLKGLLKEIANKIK", "assay": "HTS cellular-based calcium assay for human TRPM8 antagonists (FLIPR TETRA)", "conditions": "HEK293/hTRPM8 cells, agonist Cooling Agent 10 at EC80, Ca2+ fluorescence"}
{"compound": "CC/C(=N\\O)c1sc(-c2cccc(F)c2)nc1O", "note": "[Compound 44, 2-(3-fluorophenyl)-5-[(1E)—N-hydroxypropanimidoyl]-1,3-thiazol-4-ol]", "values": [{"measurement": "IC50", "value": 1360, "unit": "nM"}]}
{"compound": "CCC(=N)c1sc(-c2cccc(F)c2)nc1O", "note": "[Compound 43, 2-(3-fluorophenyl)-5-propanimidoyl-1,3-thiazol-4-ol]", "values": [{"measurement": "IC50", "value": 1210, "unit": "nM"}]}
{"compound": "CCC(=O)c1sc(-c2cccnc2)nc1O", "note": "[Compound 25, 1-[4-hydroxy-2-(pyridin-3-yl)-1,3-thiazol-5-yl]propan-1-one]", "values": [{"measurement": "IC50", "value": 356, "unit": "nM"}]}
{"compound": "CCC(=O)c1sc(-c2ccc(F)cc2)nc1O", "note": "[Compound 36, 1-[2-(4-fluorophenyl)-4-hydroxy-1,3-thiazol-5-yl]propan-1-one]", "values": [{"measurement": "IC50", "value": 50, "unit": "nM"}]}
{"compound": "CCC(=S)c1sc(-c2cccc(F)c2)nc1O", "note": "[Compound 40, 1-[2-(3-fluorophenyl)-4-hydroxy-1,3-thiazol-5-yl]propane-1-thione]", "values": [{"measurement": "IC50", "value": 236, "unit": "nM"}]}
{"compound": "CCC(=O)c1sc(-c2ccc(C)cc2)nc1O", "note": "[Compound 31, 1-[4-hydroxy-2-(4-methylphenyl)-1,3-thiazol-5-yl]propan-1-one]", "values": [{"measurement": "IC50", "value": 236, "unit": "nM"}]}
{"compound": "CC(=O)c1sc(-c2cccc(F)c2)nc1O", "note": "[Compound 4, 1-(2-(3-fluorophenyl)-4-hydroxythiazol-5-yl)ethanone]", "values": [{"measurement": "IC50", "value": 958, "unit": "nM"}]}
{"compound": "CCC(=O)c1sc(-c2ccc(NC)cc2)nc1O", "note": "[Compound 35, 1-{4-hydroxy-2-[4-(methylamino)phenyl]-1,3-thiazol-5-yl}propan-1-one]", "values": [{"measurement": "IC50", "value": 789, "unit": "nM"}]}
{"compound": "CCC(=O)c1sc(-c2ccccc2O)nc1O", "note": "[Compound 13, 1-[2-(2-hydroxyphenyl)-4-hydroxy-1,3-thiazol-5-yl]propan-1-one]", "values": [{"measurement": "IC50", "value": 112, "unit": "nM"}]}
{"compound": "CCC(=O)c1sc(-c2ccno2)nc1O", "note": "[Compound 24, 1-[4-hydroxy-2-(1,2-oxazol-5-yl)-1,3-thiazol-5-yl]propan-1-one]", "values": [{"measurement": "IC50", "value": 123, "unit": "nM"}]}
{"compound": "CCC(=O)c1sc(-c2cccc(F)c2)nc1O", "note": "[Compound 1, 1-[2-(3-fluorophenyl)-4-hydroxy-1,3-thiazol-5-yl]propan-1-one]", "values": [{"measurement": "IC50", "value": 32, "unit": "nM"}]}
{"compound": "CCC(=O)c1sc(-c2cccc(N)c2)nc1O", "note": "[Compound 32, 1-[2-(3-aminophenyl)-4-hydroxy-1,3-thiazol-5-yl]propan-1-one]", "values": [{"measurement": "IC50", "value": 450, "unit": "nM"}]}
{"compound": "CC/C(=N\\OC)c1sc(-c2cccc(F)c2)nc1O", "note": "[Compound 42, 2-(3-fluorophenyl)-5-[(1E)—N-methoxypropanimidoyl]-1,3-thiazol-4-ol]", "values": [{"measurement": "IC50", "value": 986, "unit": "nM"}]}
{"compound": "CC(C)C(=O)c1sc(-c2cccc(F)c2)nc1O", "note": "[Compound 5, 1-[2-(3-fluorophenyl)-4-hydroxy-1,3-thiazol-5-yl]-2-methylpropan-1-one]", "values": [{"measurement": "IC50", "value": 299, "unit": "nM"}]}
{"compound": "CCC(=O)c1sc(-c2cccc(C)c2)nc1O", "note": "[Compound 30, 1-[4-hydroxy-2-(3-methylphenyl)-1,3-thiazol-5-yl]propan-1-one]", "values": [{"measurement": "IC50", "value": 231, "unit": "nM"}]}
{"compound": "CON(C)C(=O)c1sc(-c2cccs2)nc1O", "note": "[Compound 6, 4-hydroxy-N-methoxy-N-methyl-2-(thiophen-2-yl)-1,3-thiazole-5-carboxamide]", "values": [{"measurement": "IC50", "value": 156, "unit": "nM"}]}
{"compound": "CCC(=O)c1sc(-c2cccc(O)c2)nc1O", "note": "[Compound 28, 1-[4-hydroxy-2-(3-hydroxyphenyl)-1,3-thiazol-5-yl]propan-1-one]", "values": [{"measurement": "IC50", "value": 23, "unit": "nM"}]}
{"compound": "CCC(=O)c1sc(-c2cnn(C)c2)nc1O", "note": "[Compound 20, 1-[4-hydroxy-2-(1-methyl-1H-pyrazol-4-yl)-1,3-thiazol-5-yl]propan-1-one]", "values": [{"measurement": "IC50", "value": 89, "unit": "nM"}]}
{"compound": "CCC(=O)c1sc(-c2ccco2)nc1O", "note": "[Compound 15, 1-[2-(furan-2-yl)-4-hydroxy-1,3-thiazol-5-yl]propan-1-one]", "values": [{"measurement": "IC50", "value": 236, "unit": "nM"}]}
{"compound": "CCC(=O)c1sc(-c2ccccn2)nc1O", "note": "[Compound 27, 1-[4-hydroxy-2-(pyridin-2-yl)-1,3-thiazol-5-yl]propan-1-one]", "values": [{"measurement": "IC50", "value": 145, "unit": "nM"}]}
{"compound": "CON(C)C(=S)c1sc(-c2cccc(F)c2)nc1O", "note": "[Compound 41, 2-(3-fluorophenyl)-4-hydroxy-N-methoxy-N-methyl-1,3-thiazole-5-carbothioamide]", "values": [{"measurement": "IC50", "value": 388, "unit": "nM"}]}
{"compound": "COCC(=O)c1sc(-c2cccc(F)c2)nc1O", "note": "[Compound 39, 1-[2-(3-fluorophenyl)-4-hydroxy-1,3-thiazol-5-yl]-2-methoxyethanone]", "values": [{"measurement": "IC50", "value": 523, "unit": "nM"}]}
{"compound": "CON(C)C(=O)c1sc(-c2ccccc2Br)nc1O", "note": "[Compound 10, 2-(2-bromophenyl)-4-hydroxy-N-methoxy-N-methyl-1,3-thiazole-5-carboxamide]", "values": [{"measurement": "IC50", "value": 435, "unit": "nM"}]}
{"compound": "CCCC(=O)c1sc(-c2cccs2)nc1O", "note": "[Compound 21, 1-[4-hydroxy-2-(thiophen-2-yl)-1,3-thiazol-5-yl]butan-1-one]", "values": [{"measurement": "IC50", "value": 64, "unit": "nM"}]}
{"compound": "CCC(=O)c1sc(-c2cnc[nH]2)nc1O", "note": "[Compound 19, 1-[4-hydroxy-2-(1H-imidazol-5-yl)-1,3-thiazol-5-yl]propan-1-one]", "values": [{"measurement": "IC50", "value": 302, "unit": "nM"}]}
{"compound": "O=C(c1sc(-c2cccc(F)c2)nc1O)C1CC1", "note": "[Compound 45, cyclopropyl[2-(3-fluorophenyl)-4-hydroxy-1,3-thiazol-5-yl]methanone]", "values": [{"measurement": "IC50", "value": 287, "unit": "nM"}]}
{"compound": "CCC(=O)c1sc(-c2cccc(Br)c2)nc1O", "note": "[Compound 14, 1-[2-(3-bromophenyl)-4-hydroxy-1,3-thiazol-5-yl]propan-1-one]", "values": [{"measurement": "IC50", "value": 1730, "unit": "nM"}]}
{"compound": "CC(C)CC(=O)c1sc(-c2cccc(F)c2)nc1O", "note": "[Compound 38, 1-[2-(3-fluorophenyl)-4-hydroxy-1,3-thiazol-5-yl]-3-methylbutan-1-one]", "values": [{"measurement": "IC50", "value": 331, "unit": "nM"}]}
{"compound": "CCC(=O)c1sc(-c2ccncc2)nc1O", "note": "[Compound 26, 1-[4-hydroxy-2-(pyridin-4-yl)-1,3-thiazol-5-yl]propan-1-one]", "values": [{"measurement": "IC50", "value": 453, "unit": "nM"}]}
{"compound": "CCC(=O)c1sc(-c2ccc[nH]2)nc1O", "note": "[Compound 16, 1-[4-hydroxy-2-(1H-pyrrol-2-yl)-1,3-thiazol-5-yl]propan-1-one]", "values": [{"measurement": "IC50", "value": 123, "unit": "nM"}]}
{"compound": "CC(C)CC(=O)c1sc(-c2cccs2)nc1O", "note": "[Compound 22, 1-[4-hydroxy-2-(thiophen-2-yl)-1,3-thiazol-5-yl]-3-methylbutan-1-one]", "values": [{"measurement": "IC50", "value": 85, "unit": "nM"}]}
{"compound": "CCC(=O)c1sc(-c2ccccc2C)nc1O", "note": "[Compound 9, 1-[4-hydroxy-2-(2-methylphenyl)-1,3-thiazol-5-yl]propan-1-one]", "values": [{"measurement": "IC50", "value": 411, "unit": "nM"}]}
{"compound": "CCC(=O)c1sc(-c2ccc(N)cc2)nc1O", "note": "[Compound 33, 1-[2-(4-aminophenyl)-4-hydroxy-1,3-thiazol-5-yl]propan-1-one]", "values": [{"measurement": "IC50", "value": 632, "unit": "nM"}]}
{"compound": "CCC(=O)c1sc(-c2cccs2)nc1O", "note": "[Compound 7, 1-[4-hydroxy-2-(thiophen-2-yl)-1,3-thiazol-5-yl]propan-1-one]", "values": [{"measurement": "IC50", "value": 596, "unit": "nM"}]}
{"compound": "CCC(=O)c1sc(-c2cccn2C)nc1O", "note": "[Compound 17, 1-[4-hydroxy-2-(1-methyl-1H-pyrrol-2-yl)-1,3-thiazol-5-yl]propan-1-one]", "values": [{"measurement": "IC50", "value": 323, "unit": "nM"}]}
{"compound": "CCC(=O)c1sc(-c2ncon2)nc1O", "note": "[Compound 23, 1-[4-hydroxy-2-(1,2,4-oxadiazol-3-yl)-1,3-thiazol-5-yl]propan-1-one]", "values": [{"measurement": "IC50", "value": 99, "unit": "nM"}]}
{"compound": "CCC(=O)c1sc(-c2cncn2C)nc1O", "note": "[Compound 18, 1-[4-hydroxy-2-(1-methyl-1H-imidazol-5-yl)-1,3-thiazol-5-yl]propan-1-one]", "values": [{"measurement": "IC50", "value": 112, "unit": "nM"}]}
{"compound": "CCC(=O)c1sc(-c2cccc(NC)c2)nc1O", "note": "[Compound 34, 1-{4-hydroxy-2-[3-(methylamino)phenyl]-1,3-thiazol-5-yl}propan-1-one]", "values": [{"measurement": "IC50", "value": 233, "unit": "nM"}]}
{"compound": "CON(C)C(=O)c1sc(-c2ccccc2C)nc1O", "note": "[Compound 8, 4-hydroxy-N-methoxy-N-methyl-2-(2-methylphenyl)-1,3-thiazole-5-carboxamide]", "values": [{"measurement": "IC50", "value": 86, "unit": "nM"}]}
{"compound": "CCC(=O)c1sc(-c2ccc(O)cc2)nc1O", "note": "[Compound 29, 1-[4-hydroxy-2-(4-hydroxyphenyl)-1,3-thiazol-5-yl]propan-1-one]", "values": [{"measurement": "IC50", "value": 326, "unit": "nM"}]}
{"compound": "CCC(=O)c1sc(-c2ccccc2Br)nc1O", "note": "[Compound 11, 1-[2-(2-bromophenyl)-4-hydroxy-1,3-thiazol-5-yl]propan-1-one]", "values": [{"measurement": "IC50", "value": 912, "unit": "nM"}]}
